Data set [1] is described as follows: Drug metabolism in human intestine microsomes assessed as ((4aR,6R)-9-{2-[(1R,4S)-5-((S)-3-Fluoro-phenyl)-pyridin-2-yl]-vinyl}-1-methyl-3-oxo-dodecahydro-naphtho[2,3-c]furan-6-yl)-carbamic acid(R)-2-hydroxy-ethyl ester formation by LC-MS/MS analysis in presence of 100 uM astemizole. The data set is classed as ADME.
In another data set the target is CYP3A5 (Homo sapiens, UniProt P20815). Nature of the data set: Activity of human recombinant CYP3A5 assessed as enzyme-mediated drug metabolism at 10 uM after 120 mins by LC-MS/MS analysis in presence of NADPH. The class given is ADME. The conditions noted are these: read-out: Compound recovery.
CYP3A5, sequence (P20815 whole entry): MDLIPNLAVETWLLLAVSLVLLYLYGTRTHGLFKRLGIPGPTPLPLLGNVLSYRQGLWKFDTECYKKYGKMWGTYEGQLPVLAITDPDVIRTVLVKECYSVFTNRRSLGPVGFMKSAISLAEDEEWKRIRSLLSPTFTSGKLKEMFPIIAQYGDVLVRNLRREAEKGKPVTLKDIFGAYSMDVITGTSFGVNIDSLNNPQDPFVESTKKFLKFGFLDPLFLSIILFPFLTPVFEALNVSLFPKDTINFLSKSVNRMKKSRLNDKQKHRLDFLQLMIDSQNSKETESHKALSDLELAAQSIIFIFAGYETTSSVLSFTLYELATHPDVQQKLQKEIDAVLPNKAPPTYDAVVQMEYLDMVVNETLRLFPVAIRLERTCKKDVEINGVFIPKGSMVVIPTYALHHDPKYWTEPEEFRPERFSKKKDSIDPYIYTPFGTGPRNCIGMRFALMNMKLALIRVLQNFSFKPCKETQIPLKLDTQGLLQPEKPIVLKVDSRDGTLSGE
For a further data set, the target named is CYP1A1 (Homo sapiens, UniProt P04798). Nature of the data set: Activity of human recombinant CYP1A1 assessed as enzyme-mediated drug metabolism at 10 uM after 120 mins by LC-MS/MS analysis in presence of NADPH. The following applies: read-out: Compound recovery. The data set is classed as ADME.
CYP1A1, sequence (P04798 whole entry): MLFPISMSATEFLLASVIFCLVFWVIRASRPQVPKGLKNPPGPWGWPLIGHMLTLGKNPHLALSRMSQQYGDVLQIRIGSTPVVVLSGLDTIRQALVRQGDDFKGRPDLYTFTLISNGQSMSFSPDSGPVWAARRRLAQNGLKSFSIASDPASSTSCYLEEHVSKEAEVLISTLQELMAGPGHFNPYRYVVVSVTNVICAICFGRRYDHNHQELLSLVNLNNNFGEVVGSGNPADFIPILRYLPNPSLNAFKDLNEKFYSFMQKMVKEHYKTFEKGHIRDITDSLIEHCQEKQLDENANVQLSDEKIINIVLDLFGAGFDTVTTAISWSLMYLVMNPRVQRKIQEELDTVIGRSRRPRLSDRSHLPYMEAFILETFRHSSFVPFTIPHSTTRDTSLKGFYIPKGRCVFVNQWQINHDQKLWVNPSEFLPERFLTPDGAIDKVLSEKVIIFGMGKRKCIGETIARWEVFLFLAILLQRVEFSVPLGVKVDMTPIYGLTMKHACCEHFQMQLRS
In data set [2] the target is T1, Cytochrome P450 3A4 (Homo sapiens, UniProt P08684). In words: Activity of human recombinant CYP3A4 assessed as enzyme-mediated ((4aR,6R)-9-{2-[(1R,4S)-5-((S)-3-Fluoro-phenyl)-pyridin-2-yl]-vinyl}-1-methyl-3-oxo-dodecahydro-naphtho[2,3-c]furan-6-yl)-carbamic acid(R)-2-hydroxy-ethyl ester formation at 10 uM after 120 mins by LC-MS/MS analysis in presence of astemizole. The class given is ADME. The conditions noted are these: 2 h.
T1 sequence (P08684 whole entry): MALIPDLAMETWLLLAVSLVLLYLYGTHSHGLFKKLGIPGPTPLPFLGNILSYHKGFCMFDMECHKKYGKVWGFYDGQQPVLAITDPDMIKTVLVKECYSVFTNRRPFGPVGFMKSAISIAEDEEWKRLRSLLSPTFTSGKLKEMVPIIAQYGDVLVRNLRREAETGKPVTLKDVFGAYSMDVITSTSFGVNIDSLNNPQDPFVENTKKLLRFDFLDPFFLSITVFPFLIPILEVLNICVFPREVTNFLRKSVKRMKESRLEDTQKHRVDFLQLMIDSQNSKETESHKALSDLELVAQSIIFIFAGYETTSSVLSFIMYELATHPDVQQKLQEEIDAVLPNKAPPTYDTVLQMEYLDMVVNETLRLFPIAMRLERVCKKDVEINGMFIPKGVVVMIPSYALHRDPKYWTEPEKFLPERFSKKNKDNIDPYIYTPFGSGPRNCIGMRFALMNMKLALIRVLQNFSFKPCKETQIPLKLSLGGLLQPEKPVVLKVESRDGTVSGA

Data set [3] deals with Liver microsome. Nature of the data set: Drug metabolism in human liver microsomes overexpressing CYP3A4 assessed as (3R,3aS,4S,4aR,7R,8aR,9aR)-7-amino-4-((E)-2-(5-(3-fluorophenyl)pyridin-2-yl)vinyl)-3-methyldecahydronaphtho[2,3-c]furan-1(3H)-one formation at 25 uM after 120 mins by LC-MS/MS analysis in presence of ticlopidine. The class given is ADME. The conditions noted are these: 2 h. On the technique in general: Liver microsomes are vesicles of endoplasmic reticulum, rich in cytochrome P450 enzymes.

In data set [4] the test system is Liver microsome. In words: Drug metabolism in human liver microsomes assessed as (3R,3aS,4S,4aR,7R,8aR,9aR)-7-amino-4-((E)-2-(5-(3-fluorophenyl)pyridin-2-yl)vinyl)-3-methyldecahydronaphtho[2,3-c]furan-1(3H)-one formation at 10 to 25 uM after 120 mins by LC-MS/MS analysis in presence of CYP2B6-specific inhibitory antibody. The following applies: 2 h. The data set is classed as ADME.

Data set [5] can be described thus: Drug level in human intestine microsomes treated with 25 uM vorapaxar after 120 mins by LC-MS/MS analysis in presence of NADPH. The class given is ADME. The following applies: 2 h.
Data set [6] can be described thus: Drug level in human lung microsomes treated with 25 uM vorapaxar after 120 mins by LC-MS/MS analysis in presence of NADPH. The class given is ADME, microsome. The following applies: 2 h.
For data set [7], the target named is T1, Cytochrome P450 3A4. In words: Drug metabolism in human liver microsomes assessed as CYP3A4-mediated (3R,3aS,4S,4aR,7R,8aR,9aR)-7-amino-4-((E)-2-(5-(3-fluorophenyl)pyridin-2-yl)vinyl)-3-methyldecahydronaphtho[2,3-c]furan-1(3H)-one formation at 25 uM after 120 mins by LC-MS/MS analysis. The data set is classed as ADME. The conditions noted are these: 2 h.

Another data set addresses Cytochrome P450 2E1 (Homo sapiens, UniProt P05181). Nature of the data set: Activity of human recombinant CYP2E1 assessed as enzyme-mediated 2-hydroxyethyl (1R,3aR,4aR,6R,8aR,9S,9aS)-9-((E)-2-(5-(3-fluorophenyl)pyridin-2-yl)vinyl)-1-methyl-3-oxododecahydronaphtho[2,3-c]furan-6-ylcarbamate formation at 25 uM after 120 mins by LC-MS/MS analysis in presence of NADPH. The class given is ADME. The following applies: 2 h.

Another data set concerns the target T2, Cytochrome P450 1A2 (Homo sapiens, UniProt P05177).
T2 sequence (P05177 whole entry): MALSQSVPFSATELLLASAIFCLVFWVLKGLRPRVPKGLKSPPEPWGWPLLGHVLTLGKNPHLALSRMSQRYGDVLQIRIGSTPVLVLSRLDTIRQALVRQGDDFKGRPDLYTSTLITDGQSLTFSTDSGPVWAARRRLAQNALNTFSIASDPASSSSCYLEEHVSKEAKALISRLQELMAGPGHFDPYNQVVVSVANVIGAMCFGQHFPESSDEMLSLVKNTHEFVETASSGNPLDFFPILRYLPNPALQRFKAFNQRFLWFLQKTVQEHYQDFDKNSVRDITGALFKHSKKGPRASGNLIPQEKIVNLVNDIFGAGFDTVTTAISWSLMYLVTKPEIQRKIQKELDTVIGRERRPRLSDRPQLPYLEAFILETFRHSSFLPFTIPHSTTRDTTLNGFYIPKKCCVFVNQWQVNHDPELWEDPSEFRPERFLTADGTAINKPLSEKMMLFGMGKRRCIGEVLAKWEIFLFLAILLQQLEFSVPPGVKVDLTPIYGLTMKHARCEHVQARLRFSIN
In words: Activity of human recombinant CYP1A2 assessed as enzyme-mediated drug metabolism at 10 uM after 120 mins by LC-MS/MS analysis. The class given is ADME. The conditions noted are these: 2 h.

A further data set addresses Cytochrome P450 2C19 (Homo sapiens, UniProt P33261). In words: Activity of human recombinant CYP2C19 assessed as enzyme-mediated 2-hydroxyethyl (1R,3aR,4aR,6R,8aR,9S,9aS)-9-((E)-2-(5-(3-fluorophenyl)pyridin-2-yl)vinyl)-1-methyl-3-oxododecahydronaphtho[2,3-c]furan-6-ylcarbamate formation at 25 uM after 120 mins by LC-MS/MS analysis in presence of NADPH. The class given is ADME. The following applies: 2 h.

For the next data set, the target named is Cytochrome P450 2A6 (Homo sapiens, UniProt P11509). In words: Activity of human recombinant CYP2A6 assessed as enzyme-mediated 2-hydroxyethyl (1R,3aR,4aR,6R,8aR,9S,9aS)-9-((E)-2-(5-(3-fluorophenyl)pyridin-2-yl)vinyl)-1-methyl-3-oxododecahydronaphtho[2,3-c]furan-6-ylcarbamate formation at 25 uM after 120 mins by LC-MS/MS analysis in presence of NADPH. The data set is classed as ADME. The following applies: 2 h.
Cytochrome P450 2A6, sequence (P11509 whole entry): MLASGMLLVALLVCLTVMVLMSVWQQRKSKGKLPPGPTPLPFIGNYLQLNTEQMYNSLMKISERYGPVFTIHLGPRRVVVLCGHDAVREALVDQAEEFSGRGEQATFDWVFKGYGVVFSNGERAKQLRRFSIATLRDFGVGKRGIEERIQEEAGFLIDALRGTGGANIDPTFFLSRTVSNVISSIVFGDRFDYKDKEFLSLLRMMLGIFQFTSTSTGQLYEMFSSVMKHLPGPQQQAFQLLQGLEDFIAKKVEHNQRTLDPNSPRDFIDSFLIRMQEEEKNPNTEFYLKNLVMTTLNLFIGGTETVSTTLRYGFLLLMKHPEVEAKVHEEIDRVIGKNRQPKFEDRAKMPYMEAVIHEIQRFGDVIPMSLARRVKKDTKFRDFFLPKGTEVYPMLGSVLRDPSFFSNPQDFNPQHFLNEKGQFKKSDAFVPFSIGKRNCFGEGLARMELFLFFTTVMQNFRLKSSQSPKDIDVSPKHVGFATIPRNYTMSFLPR

In the next data set the target is Cytochrome P450 2C8 (Homo sapiens, UniProt P10632). In words: Activity of human recombinant CYP2C8 assessed as enzyme-mediated 2-hydroxyethyl (1R,3aR,4aR,6R,8aR,9S,9aS)-9-((E)-2-(5-(3-fluorophenyl)pyridin-2-yl)vinyl)-1-methyl-3-oxododecahydronaphtho[2,3-c]furan-6-ylcarbamate formation at 25 uM after 120 mins by LC-MS/MS analysis in presence of NADPH. The class given is ADME. The conditions noted are these: 2 h.
Cytochrome P450 2C8, sequence (P10632 whole entry): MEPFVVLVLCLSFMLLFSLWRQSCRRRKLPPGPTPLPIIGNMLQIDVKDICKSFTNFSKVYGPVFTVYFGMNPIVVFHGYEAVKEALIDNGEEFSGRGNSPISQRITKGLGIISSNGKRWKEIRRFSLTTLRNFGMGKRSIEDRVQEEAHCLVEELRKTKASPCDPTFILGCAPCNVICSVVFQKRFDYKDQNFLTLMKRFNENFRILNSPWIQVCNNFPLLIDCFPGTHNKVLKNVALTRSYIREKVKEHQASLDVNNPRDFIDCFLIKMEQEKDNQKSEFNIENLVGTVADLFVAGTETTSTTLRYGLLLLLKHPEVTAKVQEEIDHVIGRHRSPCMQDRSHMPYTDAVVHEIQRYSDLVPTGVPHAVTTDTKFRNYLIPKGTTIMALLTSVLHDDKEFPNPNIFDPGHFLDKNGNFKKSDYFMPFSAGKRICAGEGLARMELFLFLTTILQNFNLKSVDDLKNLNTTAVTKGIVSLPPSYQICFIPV

The subject of data set [8] is Liver microsome. Nature of the data set: Drug metabolism in human liver microsomes assessed as (3R,3aS,4S,4aR,7R,8aR,9aR)-7-amino-4-((E)-2-(5-(3-fluorophenyl)pyridin-2-yl)vinyl)-3-methyldecahydronaphtho[2,3-c]furan-1(3H)-one formation at 10 uM after 120 mins by LC-MS/MS analysis. The following applies: 2 h. The class given is ADME.
The target in another data set is Cytochrome P450 2D6 (Homo sapiens, UniProt P10635). Nature of the data set: Activity of human recombinant CYP2D6 assessed as enzyme-mediated 2-hydroxyethyl (1R,3aR,4aR,6R,8aR,9S,9aS)-9-((E)-2-(5-(3-fluorophenyl)pyridin-2-yl)vinyl)-1-methyl-3-oxododecahydronaphtho[2,3-c]furan-6-ylcarbamate formation at 25 uM after 120 mins by LC-MS/MS analysis in presence of NADPH. The conditions noted are these: 2 h. The data set is classed as ADME.
Cytochrome P450 2D6, sequence (P10635 whole entry): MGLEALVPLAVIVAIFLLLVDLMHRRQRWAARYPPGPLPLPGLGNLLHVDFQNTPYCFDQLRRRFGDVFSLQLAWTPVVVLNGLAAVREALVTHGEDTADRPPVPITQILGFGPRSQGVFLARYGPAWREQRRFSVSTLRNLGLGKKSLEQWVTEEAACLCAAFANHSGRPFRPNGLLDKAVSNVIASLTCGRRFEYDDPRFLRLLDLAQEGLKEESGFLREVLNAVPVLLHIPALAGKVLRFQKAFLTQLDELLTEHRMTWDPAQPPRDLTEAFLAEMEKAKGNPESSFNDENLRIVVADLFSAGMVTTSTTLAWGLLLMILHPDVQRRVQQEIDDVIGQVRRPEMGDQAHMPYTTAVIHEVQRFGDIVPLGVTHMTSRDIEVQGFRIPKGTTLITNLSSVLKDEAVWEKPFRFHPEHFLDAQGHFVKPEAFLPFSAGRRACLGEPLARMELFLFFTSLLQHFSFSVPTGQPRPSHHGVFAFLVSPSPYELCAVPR

The next data set has as its target Cytochrome P450 3A5 (Homo sapiens, UniProt P20815). In words: Activity of human recombinant CYP3A5 assessed as enzyme-mediated drug metabolism at 10 uM after 120 mins by LC-MS/MS analysis. The class given is ADME. The following applies: 2 h.

The text below walks through data of ChEMBL document CHEMBL3526033, “Identification of human liver cytochrome P450 enzymes involved in the metabolism of SCH 530348 (Vorapaxar), a potent oral thrombin protease-activated receptor 1 antagonist” (Drug Metab Dispos, 2011).

Cytochrome P450 2C19, sequence (P33261 whole entry): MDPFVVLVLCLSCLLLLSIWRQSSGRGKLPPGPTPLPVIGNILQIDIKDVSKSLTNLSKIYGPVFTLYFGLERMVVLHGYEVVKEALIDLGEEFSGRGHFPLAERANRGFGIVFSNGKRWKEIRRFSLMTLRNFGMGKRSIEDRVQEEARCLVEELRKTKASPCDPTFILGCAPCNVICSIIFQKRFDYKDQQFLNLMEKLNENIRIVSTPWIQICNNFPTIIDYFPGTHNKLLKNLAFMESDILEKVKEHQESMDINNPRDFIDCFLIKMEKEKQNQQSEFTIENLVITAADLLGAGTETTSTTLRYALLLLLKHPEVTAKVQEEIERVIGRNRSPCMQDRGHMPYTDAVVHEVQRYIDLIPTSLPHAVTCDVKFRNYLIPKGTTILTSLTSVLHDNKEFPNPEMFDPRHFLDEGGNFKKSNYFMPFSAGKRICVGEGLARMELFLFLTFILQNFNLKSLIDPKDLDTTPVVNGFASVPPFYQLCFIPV
Cytochrome P450 3A5, sequence (P20815 whole entry): as the sequence (P20815 whole entry) above
Cytochrome P450 2E1, sequence (P05181 whole entry): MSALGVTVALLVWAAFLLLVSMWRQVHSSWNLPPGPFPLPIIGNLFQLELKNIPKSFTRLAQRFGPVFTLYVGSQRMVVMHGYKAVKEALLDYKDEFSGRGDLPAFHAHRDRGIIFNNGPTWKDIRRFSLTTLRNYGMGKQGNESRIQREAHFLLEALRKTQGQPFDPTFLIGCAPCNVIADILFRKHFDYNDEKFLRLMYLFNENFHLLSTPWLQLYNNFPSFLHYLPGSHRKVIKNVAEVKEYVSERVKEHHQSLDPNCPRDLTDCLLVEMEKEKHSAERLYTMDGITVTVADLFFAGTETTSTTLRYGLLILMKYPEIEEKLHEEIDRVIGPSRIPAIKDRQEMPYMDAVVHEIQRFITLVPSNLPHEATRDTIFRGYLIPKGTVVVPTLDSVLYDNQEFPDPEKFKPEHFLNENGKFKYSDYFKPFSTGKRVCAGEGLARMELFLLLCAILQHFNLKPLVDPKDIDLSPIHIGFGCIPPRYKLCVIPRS

Consider `CCOC(=O)N[C@@H]1CC[C@@H]2[C@@H](C1)C[C@H]1C(=O)O[C@H](C)[C@H]1[C@H]2/C=C/c1ccc(-c2cccc(F)c2)cn1` [VORAPAXAR], for which the “inhibition (INH)” value worked out at 77% in [1] and 76% on Cytochrome P450 3A4 [2]. For the same compound, the remaining at 2 h, 10 µM is 93.9% on CYP3A5 and 96.3% at CYP1A1. The Drug metabolism entry in the data set on Liver microsome [3] is reported as “metabolite_not_detected”; in the data set with Liver microsome [4] it was “metabolite_detected”.

In the case of `C[C@H]1OC(=O)[C@@H]2C[C@@H]3C[C@H](NC(=O)OCCO)CC[C@H]3[C@H](/C=C/c3ccc(-c4cccc(F)c4)cn3)[C@H]12`, the Drug metabolism entry (in data set [5]; in data set [6]; at Cytochrome P450 3A4 [7]) was “metabolite_detected” in each case.

On to `CCOC(=O)N[C@@H]1CC[C@@H]2[C@@H](C1)C[C@H]1C(=O)O[C@H](C)[C@H]1[C@H]2/C=[14CH]/c1ccc(-c2cccc(F)c2)cn1`, for which the Drug metabolism entry on Cytochrome P450 2E1 is “metabolite_detected”; on Cytochrome P450 1A2, “metabolite_not_detected”; at Cytochrome P450 2C19, “metabolite_detected”; at Cytochrome P450 2A6, “metabolite_detected”; at Cytochrome P450 2C8 it was “metabolite_detected”; in the data set on Liver microsome [8] it was “metabolite_not_detected”. Also, the Drug metabolism result at Cytochrome P450 2D6 is reported as “metabolite_detected”; on Cytochrome P450 3A5 it was “metabolite_not_detected”.
